Data: ChEMBL document CHEMBL4507261, “Data for DCP probe A-192621” (2021)

Columns and labels:
[1] = biological target: Homeodomain-interacting protein kinase 2 (Homo sapiens) (UniProt Q9H2X6); settings: Compound concentration 1000.0 nM
[2] = biological target: Serine/threonine-protein kinase MRCK beta (Homo sapiens) (UniProt Q9Y5S2); settings: Compound concentration 1000.0 nM
[3] = test system: Fibroblast growth factor receptor 3 (Homo sapiens), P22607 [G697C]; settings: Compound concentration 1000.0 nM
Sequence of Fibroblast growth factor receptor 3 (Homo sapiens), P22607 [G697C] (P22607 whole entry G697C): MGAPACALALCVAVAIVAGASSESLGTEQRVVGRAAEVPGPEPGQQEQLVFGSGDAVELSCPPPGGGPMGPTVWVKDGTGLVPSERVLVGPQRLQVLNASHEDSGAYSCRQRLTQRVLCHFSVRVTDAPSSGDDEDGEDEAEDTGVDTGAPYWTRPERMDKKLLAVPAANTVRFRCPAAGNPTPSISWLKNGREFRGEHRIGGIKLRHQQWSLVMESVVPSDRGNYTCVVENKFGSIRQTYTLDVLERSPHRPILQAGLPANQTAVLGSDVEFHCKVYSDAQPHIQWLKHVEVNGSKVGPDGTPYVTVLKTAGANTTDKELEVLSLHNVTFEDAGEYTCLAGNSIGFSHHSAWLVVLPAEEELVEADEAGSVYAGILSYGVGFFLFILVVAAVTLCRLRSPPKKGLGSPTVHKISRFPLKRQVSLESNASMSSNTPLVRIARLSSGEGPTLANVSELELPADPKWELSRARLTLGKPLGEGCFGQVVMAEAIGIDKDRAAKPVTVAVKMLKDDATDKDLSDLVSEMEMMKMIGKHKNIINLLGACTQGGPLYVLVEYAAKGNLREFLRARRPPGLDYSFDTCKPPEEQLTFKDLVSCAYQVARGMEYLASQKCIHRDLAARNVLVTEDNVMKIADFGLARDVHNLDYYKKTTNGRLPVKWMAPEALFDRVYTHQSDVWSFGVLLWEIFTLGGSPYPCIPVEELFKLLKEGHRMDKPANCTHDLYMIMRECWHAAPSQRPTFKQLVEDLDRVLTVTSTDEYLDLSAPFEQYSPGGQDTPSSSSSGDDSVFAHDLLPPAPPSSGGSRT

[4] = biological target: Serine/threonine-protein kinase 25 (Homo sapiens) (UniProt O00506); settings: Compound concentration 1000.0 nM
Sequence of Serine/threonine-protein kinase 25 (Homo sapiens) (O00506 whole entry, looked up): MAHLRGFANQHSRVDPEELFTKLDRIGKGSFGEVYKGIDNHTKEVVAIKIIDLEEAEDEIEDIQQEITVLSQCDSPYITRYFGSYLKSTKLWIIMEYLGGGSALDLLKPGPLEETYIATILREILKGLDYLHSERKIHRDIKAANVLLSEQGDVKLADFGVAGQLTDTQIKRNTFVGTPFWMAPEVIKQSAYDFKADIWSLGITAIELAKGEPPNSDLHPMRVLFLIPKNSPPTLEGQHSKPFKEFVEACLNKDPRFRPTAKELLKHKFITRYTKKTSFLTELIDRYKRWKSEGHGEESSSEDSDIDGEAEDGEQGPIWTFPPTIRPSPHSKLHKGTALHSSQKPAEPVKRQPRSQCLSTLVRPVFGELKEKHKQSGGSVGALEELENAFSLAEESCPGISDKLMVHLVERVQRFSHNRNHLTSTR

[5] = biological target: SRSF protein kinase 1 (Homo sapiens) (UniProt Q96SB4); settings: Compound concentration 1000.0 nM
[6] = test system: Epidermal growth factor receptor (Homo sapiens), P00533 [G719S]; settings: Compound concentration 1000.0 nM
[7] = biological target: Tyrosine-protein kinase ABL1 (Homo sapiens) (UniProt P00519); settings: Compound concentration 1000.0 nM
[8] = biological target: Mitogen-activated protein kinase 10 (Homo sapiens) (UniProt P53779); settings: Compound concentration 1000.0 nM
[9] = biological target: Tyrosine-protein kinase SYK (Homo sapiens) (UniProt P43405); settings: Compound concentration 1000.0 nM
[10] = biological target: 5-hydroxytryptamine receptor 1B (Homo sapiens) (UniProt P28222); assay: 5-HT1B(h) Eurofins-Cerep binding assay; design: ligand concentration 1 nM; settings: filed as antagonist, Compound concentration 10.0 uM
[11] = biological target: Glucocorticoid receptor (Homo sapiens) (UniProt P04150); assay: GR (h) Eurofins-Cerep binding assay; design: ligand concentration 1.5 nM; settings: filed as agonist, Compound concentration 10.0 uM
[12] = biological target: Endothelin receptor type B (Homo sapiens) (UniProt P24530); assay: ETB (h) Eurofins-Cerep binding assay; settings: filed as agonist, Compound concentration 10.0 uM
[13] = biological target: cAMP-dependent protein kinase catalytic subunit alpha (Homo sapiens) (UniProt P17612); settings: Compound concentration 1000.0 nM
[14] = biological target: RAC-alpha serine/threonine-protein kinase (Homo sapiens) (UniProt P31749); settings: Compound concentration 1000.0 nM
[15] = biological target: Serine/threonine-protein kinase Nek5 (Homo sapiens) (UniProt Q6P3R8); settings: Compound concentration 1000.0 nM
[16] = biological target: Dual specificity protein kinase CLK4 (Homo sapiens) (UniProt Q9HAZ1); settings: Compound concentration 1000.0 nM
[17] = biological target: Serine/threonine-protein kinase BRSK1 (Homo sapiens) (UniProt Q8TDC3); settings: Compound concentration 1000.0 nM
Sequence of Serine/threonine-protein kinase BRSK1 (Homo sapiens) (Q8TDC3 whole entry): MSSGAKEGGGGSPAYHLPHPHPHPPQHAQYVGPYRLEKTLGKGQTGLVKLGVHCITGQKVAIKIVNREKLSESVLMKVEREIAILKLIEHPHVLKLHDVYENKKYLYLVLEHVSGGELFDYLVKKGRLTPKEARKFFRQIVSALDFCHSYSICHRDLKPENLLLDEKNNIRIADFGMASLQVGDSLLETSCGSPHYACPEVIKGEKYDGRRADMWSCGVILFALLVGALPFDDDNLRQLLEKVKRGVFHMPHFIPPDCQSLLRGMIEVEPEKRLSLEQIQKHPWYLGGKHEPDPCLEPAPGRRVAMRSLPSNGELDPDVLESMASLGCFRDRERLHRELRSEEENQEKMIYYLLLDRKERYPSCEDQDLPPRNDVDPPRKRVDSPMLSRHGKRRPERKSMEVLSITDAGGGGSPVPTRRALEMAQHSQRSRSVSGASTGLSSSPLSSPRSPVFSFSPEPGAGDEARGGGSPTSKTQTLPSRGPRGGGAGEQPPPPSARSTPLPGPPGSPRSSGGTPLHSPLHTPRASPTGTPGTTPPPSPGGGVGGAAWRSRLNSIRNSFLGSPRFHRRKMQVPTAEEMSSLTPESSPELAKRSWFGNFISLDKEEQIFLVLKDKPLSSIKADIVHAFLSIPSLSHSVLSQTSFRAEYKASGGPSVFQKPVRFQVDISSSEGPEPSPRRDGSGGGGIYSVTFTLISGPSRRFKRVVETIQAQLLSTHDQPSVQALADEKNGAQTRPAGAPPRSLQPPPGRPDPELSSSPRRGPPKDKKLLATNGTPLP

[18] = biological target: Mitogen-activated protein kinase kinase kinase 11 (Homo sapiens) (UniProt Q16584); settings: Compound concentration 1000.0 nM
Sequence of Mitogen-activated protein kinase kinase kinase 11 (Homo sapiens) (Q16584 whole entry, looked up, the tested form may be a part): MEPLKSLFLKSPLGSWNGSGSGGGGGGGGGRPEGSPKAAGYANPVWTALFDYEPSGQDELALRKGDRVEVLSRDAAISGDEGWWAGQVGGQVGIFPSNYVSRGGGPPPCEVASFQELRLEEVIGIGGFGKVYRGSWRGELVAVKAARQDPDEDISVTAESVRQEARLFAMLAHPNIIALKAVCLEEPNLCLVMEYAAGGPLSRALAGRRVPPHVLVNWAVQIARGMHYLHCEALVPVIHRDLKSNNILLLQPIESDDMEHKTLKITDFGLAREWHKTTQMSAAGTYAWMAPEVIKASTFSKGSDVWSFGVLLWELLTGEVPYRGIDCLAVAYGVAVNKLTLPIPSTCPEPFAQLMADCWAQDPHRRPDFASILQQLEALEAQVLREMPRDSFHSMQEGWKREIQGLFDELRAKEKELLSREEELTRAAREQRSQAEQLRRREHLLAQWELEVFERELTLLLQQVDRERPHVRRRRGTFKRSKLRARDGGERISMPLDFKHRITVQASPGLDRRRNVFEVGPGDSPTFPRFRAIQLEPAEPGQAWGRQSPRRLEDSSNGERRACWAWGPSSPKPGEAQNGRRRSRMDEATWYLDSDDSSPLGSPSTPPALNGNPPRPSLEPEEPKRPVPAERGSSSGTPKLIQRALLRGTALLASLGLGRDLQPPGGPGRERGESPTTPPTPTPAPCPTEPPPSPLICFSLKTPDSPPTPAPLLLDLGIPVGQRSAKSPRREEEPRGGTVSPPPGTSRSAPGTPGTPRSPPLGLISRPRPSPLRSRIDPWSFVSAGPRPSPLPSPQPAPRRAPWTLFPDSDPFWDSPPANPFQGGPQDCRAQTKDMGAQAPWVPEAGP

[19] = biological target: Phosphatidylinositol 3-kinase C2 domain-containing subunit gamma (Homo sapiens) (UniProt O75747); settings: Compound concentration 1000.0 nM
[20] = biological target: Serine/threonine-protein kinase TAO3 (Homo sapiens) (UniProt Q9H2K8); settings: Compound concentration 1000.0 nM
[21] = biological target: Inhibitor of nuclear factor kappa-B kinase subunit alpha (Homo sapiens) (UniProt O15111); settings: Compound concentration 1000.0 nM
Sequence of Inhibitor of nuclear factor kappa-B kinase subunit alpha (Homo sapiens) (O15111 whole entry): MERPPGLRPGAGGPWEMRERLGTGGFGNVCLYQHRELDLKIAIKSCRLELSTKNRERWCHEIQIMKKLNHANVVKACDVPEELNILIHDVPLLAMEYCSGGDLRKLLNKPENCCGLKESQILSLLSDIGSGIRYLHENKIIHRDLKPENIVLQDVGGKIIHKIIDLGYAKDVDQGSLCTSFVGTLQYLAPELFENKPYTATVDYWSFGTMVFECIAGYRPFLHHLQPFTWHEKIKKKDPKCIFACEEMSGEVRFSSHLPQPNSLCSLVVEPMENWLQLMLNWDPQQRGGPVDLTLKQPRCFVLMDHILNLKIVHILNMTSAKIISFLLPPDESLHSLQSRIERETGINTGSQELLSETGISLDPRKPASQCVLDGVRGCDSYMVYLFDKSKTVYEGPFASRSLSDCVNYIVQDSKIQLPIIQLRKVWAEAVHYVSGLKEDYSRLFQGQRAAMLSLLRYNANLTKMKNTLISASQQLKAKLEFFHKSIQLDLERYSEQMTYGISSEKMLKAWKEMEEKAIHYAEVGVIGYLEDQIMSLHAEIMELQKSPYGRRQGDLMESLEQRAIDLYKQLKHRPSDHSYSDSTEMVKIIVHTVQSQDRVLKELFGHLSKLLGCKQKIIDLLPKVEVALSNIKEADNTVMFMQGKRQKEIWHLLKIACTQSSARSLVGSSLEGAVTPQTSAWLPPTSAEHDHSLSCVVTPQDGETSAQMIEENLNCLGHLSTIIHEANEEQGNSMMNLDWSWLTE

[22] = biological target: Serine/threonine-protein kinase DCLK1 (Homo sapiens) (UniProt O15075); settings: Compound concentration 1000.0 nM
[23] = biological target: Hormonally up-regulated neu tumor-associated kinase (Homo sapiens) (UniProt P57058); settings: Compound concentration 1000.0 nM
[24] = biological target: Serine/threonine-protein kinase Nek2 (Homo sapiens) (UniProt P51955); settings: Compound concentration 1000.0 nM
[25] = biological target: Calcium/calmodulin-dependent protein kinase type II subunit alpha (Homo sapiens) (UniProt Q9UQM7); settings: Compound concentration 1000.0 nM
[26] = biological target: Eukaryotic translation initiation factor 2-alpha kinase 1 (Homo sapiens) (UniProt Q9BQI3); settings: Compound concentration 1000.0 nM
[27] = biological target: Type-1 angiotensin II receptor (Homo sapiens) (UniProt P30556); assay: AT1 (h) Eurofins-Cerep binding assay; design: ligand concentration 0.05 nM; settings: filed as antagonist, Compound concentration 10.0 uM
[28] = biological target: Cyclin-dependent kinase-like 1 (Homo sapiens) (UniProt Q00532); settings: Compound concentration 1000.0 nM
[29] = test system: Tyrosine-protein kinase ABL1 (Homo sapiens), P00519 [T315I]; settings: Compound concentration 1000.0 nM
[30] = biological target: Calcium/calmodulin-dependent protein kinase type 1B (Homo sapiens) (UniProt Q6P2M8); settings: Compound concentration 1000.0 nM
[31] = biological target: Ribosomal protein S6 kinase alpha-1 (Homo sapiens) (UniProt Q15418); settings: Compound concentration 1000.0 nM
[32] = biological target: Beta-2 adrenergic receptor (Homo sapiens) (UniProt P07550); assay: Beta2 (h) Eurofins-Cerep binding assay; design: ligand concentration 0.3 nM; settings: filed as antagonist, Compound concentration 10.0 uM
[33] = biological target: Serine/threonine-protein kinase B-raf (Homo sapiens) (UniProt P15056); settings: Compound concentration 1000.0 nM
[34] = biological target: Serine/threonine-protein kinase Sgk2 (Homo sapiens) (UniProt Q9HBY8); settings: Compound concentration 1000.0 nM
Sequence of Serine/threonine-protein kinase Sgk2 (Homo sapiens) (Q9HBY8 whole entry): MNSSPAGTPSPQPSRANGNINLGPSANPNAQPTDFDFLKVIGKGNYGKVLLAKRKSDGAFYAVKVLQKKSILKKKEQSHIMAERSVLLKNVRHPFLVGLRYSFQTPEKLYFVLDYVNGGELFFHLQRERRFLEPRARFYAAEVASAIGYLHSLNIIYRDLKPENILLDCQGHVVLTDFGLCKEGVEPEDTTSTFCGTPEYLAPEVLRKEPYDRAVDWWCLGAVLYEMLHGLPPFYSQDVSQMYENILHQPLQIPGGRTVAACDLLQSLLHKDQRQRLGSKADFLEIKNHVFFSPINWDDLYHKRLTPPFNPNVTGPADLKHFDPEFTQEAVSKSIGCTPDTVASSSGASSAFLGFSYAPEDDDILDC

[35] = biological target: Serine/threonine-protein kinase Sgk1 (Homo sapiens) (UniProt O00141); settings: Compound concentration 1000.0 nM
[36] = biological target: Cyclin-dependent kinase 11A (Homo sapiens) (UniProt Q9UQ88); settings: Compound concentration 1000.0 nM
[37] = biological target: D(1A) dopamine receptor (Homo sapiens) (UniProt P21728); assay: D1 (h) Eurofins-Cerep binding assay; design: ligand concentration 0.3 nM; settings: filed as antagonist, Compound concentration 10.0 uM
[38] = biological target: Dual specificity mitogen-activated protein kinase kinase 5 (Homo sapiens) (UniProt Q13163); settings: Compound concentration 1000.0 nM
[39] = biological target: Tyrosine-protein kinase Lck (Homo sapiens) (UniProt P06239); settings: Compound concentration 1000.0 nM
[40] = biological target: Bone morphogenetic protein receptor type-1B (Homo sapiens) (UniProt O00238); settings: Compound concentration 1000.0 nM
Sequence of Bone morphogenetic protein receptor type-1B (Homo sapiens) (O00238 whole entry): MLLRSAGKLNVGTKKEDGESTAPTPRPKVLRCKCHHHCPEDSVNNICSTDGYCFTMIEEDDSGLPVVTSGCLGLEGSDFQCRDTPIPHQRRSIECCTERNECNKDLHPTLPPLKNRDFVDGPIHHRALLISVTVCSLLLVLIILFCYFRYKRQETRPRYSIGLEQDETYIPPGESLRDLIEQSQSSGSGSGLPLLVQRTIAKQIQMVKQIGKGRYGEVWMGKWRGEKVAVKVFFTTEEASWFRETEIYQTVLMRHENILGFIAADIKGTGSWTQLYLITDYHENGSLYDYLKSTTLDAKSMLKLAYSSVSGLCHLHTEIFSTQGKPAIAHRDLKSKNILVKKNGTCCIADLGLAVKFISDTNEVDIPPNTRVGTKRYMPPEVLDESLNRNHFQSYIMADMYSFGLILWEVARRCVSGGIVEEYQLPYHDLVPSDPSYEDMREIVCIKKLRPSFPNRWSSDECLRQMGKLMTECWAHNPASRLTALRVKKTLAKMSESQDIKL

[41] = biological target: Inhibitor of nuclear factor kappa-B kinase subunit beta (Homo sapiens) (UniProt O14920); settings: Compound concentration 1000.0 nM
[42] = biological target: Serine/threonine-protein kinase 38 (Homo sapiens) (UniProt Q15208); settings: Compound concentration 1000.0 nM
Sequence of Serine/threonine-protein kinase 38 (Homo sapiens) (Q15208 2-465 limits assumed): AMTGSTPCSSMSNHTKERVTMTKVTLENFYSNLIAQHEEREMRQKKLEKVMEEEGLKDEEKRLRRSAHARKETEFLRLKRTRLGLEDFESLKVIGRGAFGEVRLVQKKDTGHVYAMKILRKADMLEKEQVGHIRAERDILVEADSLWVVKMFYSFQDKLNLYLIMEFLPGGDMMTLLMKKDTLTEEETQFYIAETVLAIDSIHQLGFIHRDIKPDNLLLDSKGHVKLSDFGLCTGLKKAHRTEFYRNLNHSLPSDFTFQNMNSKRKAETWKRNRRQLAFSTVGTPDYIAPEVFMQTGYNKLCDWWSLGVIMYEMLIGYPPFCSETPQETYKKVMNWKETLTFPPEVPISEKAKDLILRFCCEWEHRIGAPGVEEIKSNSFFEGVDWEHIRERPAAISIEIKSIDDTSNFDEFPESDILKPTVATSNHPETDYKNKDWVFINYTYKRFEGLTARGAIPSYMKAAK

[43] = biological target: Serine/threonine-protein kinase pim-3 (Homo sapiens) (UniProt Q86V86); settings: Compound concentration 1000.0 nM
[44] = biological target: Leucine-rich repeat serine/threonine-protein kinase 2 (Homo sapiens) (UniProt Q5S007); settings: Compound concentration 1000.0 nM
[45] = biological target: Serine/threonine-protein kinase 32B (Homo sapiens) (UniProt Q9NY57); settings: Compound concentration 1000.0 nM

`CCCOc1ccc([C@@H]2[C@@H](C(=O)O)[C@H](c3ccc4c(c3)OCO4)CN2CC(=O)Nc2c(CC)cccc2CC)cc1` [A-1806262] was tested. Which residual activity [1] did it give?
The residual activity was 80%.

What about the residual activity [2] of the same compound?
Its residual activity is 97%.

And the residual activity [3]?
The residual activity was 99%.

And the residual activity [4]?
The residual activity was 100%.

What about the residual activity [5] of the same compound?
Its residual activity is 94%.

And the residual activity [6]?
The residual activity was 100%.

What about the residual activity [7] of the same compound?
The residual activity was 88%.

And the residual activity [8]?
The residual activity was 95%.

And the residual activity [9]?
The residual activity was 100%.

What about the % Inhibition of Control Specific Binding (Mean n=2) [10] of the same compound?
The % Inhibition of Control Specific Binding (Mean n=2) was 13.4%.

And the % Inhibition of Control Specific Binding (Mean n=2) [11]?
Its % Inhibition of Control Specific Binding (Mean n=2) is 4.1%.

What about the % Inhibition of Control Specific Binding (Mean n=2) [12] of the same compound?
Its % Inhibition of Control Specific Binding (Mean n=2) is 96.7%.

And the residual activity [13]?
The residual activity was 100%.

What about the residual activity [14] of the same compound?
Its residual activity is 100%.

What about the residual activity [15] of the same compound?
Its residual activity is 55%.

And the residual activity [16]?
Its residual activity is 89%.

What about the residual activity [17] of the same compound?
The residual activity was 100%.

What about the residual activity [18] of the same compound?
The residual activity was 100%.

And the residual activity [19]?
Its residual activity is 78%.

What about the residual activity [20] of the same compound?
Its residual activity is 100%.

What about the residual activity [21] of the same compound?
The residual activity was 86%.

And the residual activity [22]?
Its residual activity is 80%.

And the residual activity [23]?
The residual activity was 70%.

What about the residual activity [24] of the same compound?
Its residual activity is 97%.

And the residual activity [25]?
Its residual activity is 100%.

What about the residual activity [26] of the same compound?
The residual activity was 86%.

What about the % Inhibition of Control Specific Binding (Mean n=2) [27] of the same compound?
Its % Inhibition of Control Specific Binding (Mean n=2) is -3.8%.

And the residual activity [28]?
The residual activity was 77%.

What about the residual activity [29] of the same compound?
Its residual activity is 83%.

What about the residual activity [30] of the same compound?
The residual activity was 100%.

And the residual activity [31]?
The residual activity was 77%.

What about the % Inhibition of Control Specific Binding (Mean n=2) [32] of the same compound?
Its % Inhibition of Control Specific Binding (Mean n=2) is 3.6%.

What about the residual activity [33] of the same compound?
The residual activity was 96%.

And the residual activity [34]?
The residual activity was 69%.

And the residual activity [35]?
The residual activity was 75%.

What about the residual activity [36] of the same compound?
The residual activity was 100%.

What about the % Inhibition of Control Specific Binding (Mean n=2) [37] of the same compound?
Its % Inhibition of Control Specific Binding (Mean n=2) is -0.2%.

What about the residual activity [38] of the same compound?
Its residual activity is 100%.

What about the residual activity [39] of the same compound?
The residual activity was 100%.

And the residual activity [40]?
Its residual activity is 82%.

What about the residual activity [41] of the same compound?
Its residual activity is 94%.

And the residual activity [42]?
Its residual activity is 83%.

What about the residual activity [43] of the same compound?
Its residual activity is 95%.

And the residual activity [44]?
Its residual activity is 84%.

And the residual activity [45]?
Its residual activity is 100%.

What does the source list for `CCCOc1ccc([C@H]2[C@H](C(=O)O)[C@@H](c3ccc4c(c3)OCO4)CN2CC(=O)Nc2c(CC)cccc2CC)cc1` [A-192621]?
residual activity [1]: 66%; residual activity [2]: 87%; residual activity [3]: 85%; residual activity [4]: 100%; residual activity [5]: 95%; residual activity [6]: 89%; residual activity [7]: 70%; residual activity [8]: 80%; residual activity [9]: 100%; % Inhibition of Control Specific Binding (Mean n=2) [10]: 12.3%; % Inhibition of Control Specific Binding (Mean n=2) [11]: 7%; % Inhibition of Control Specific Binding (Mean n=2) [12]: 94.7%; residual activity [13]: 100%; residual activity [14]: 97%; residual activity [15]: 29%; residual activity [16]: 100%; residual activity [17]: 100%; residual activity [18]: 100%; residual activity [19]: 75%; residual activity [20]: 81%; residual activity [21]: 77%; residual activity [22]: 75%; residual activity [23]: 100%; residual activity [24]: 90%; residual activity [25]: 90%; residual activity [26]: 84%; % Inhibition of Control Specific Binding (Mean n=2) [27]: 1.5%; residual activity [28]: 66%; residual activity [29]: 58%; residual activity [30]: 77%; residual activity [31]: 74%; % Inhibition of Control Specific Binding (Mean n=2) [32]: -0.2%; residual activity [33]: 80%; residual activity [34]: 54%; residual activity [35]: 63%; residual activity [36]: 98%; % Inhibition of Control Specific Binding (Mean n=2) [37]: -2.2%; residual activity [38]: 63%; residual activity [39]: 100%; residual activity [40]: 61%; residual activity [41]: 77%; residual activity [42]: 77%; residual activity [43]: 88%; residual activity [44]: 79%; residual activity [45]: 100%
